EC50 data for 26 compounds are collected here from patent publication US10981902B2 (Merck Sharp & Dohme Corp., priority 2017, dated 2021).

The test addresses T1, human M4 muscarinic acetylcholine receptor (Homo sapiens, UniProt P08173).
T1 construct: expressed in transfected cells; host or cells: CHO-K1
T1 sequence (P08173 1-479): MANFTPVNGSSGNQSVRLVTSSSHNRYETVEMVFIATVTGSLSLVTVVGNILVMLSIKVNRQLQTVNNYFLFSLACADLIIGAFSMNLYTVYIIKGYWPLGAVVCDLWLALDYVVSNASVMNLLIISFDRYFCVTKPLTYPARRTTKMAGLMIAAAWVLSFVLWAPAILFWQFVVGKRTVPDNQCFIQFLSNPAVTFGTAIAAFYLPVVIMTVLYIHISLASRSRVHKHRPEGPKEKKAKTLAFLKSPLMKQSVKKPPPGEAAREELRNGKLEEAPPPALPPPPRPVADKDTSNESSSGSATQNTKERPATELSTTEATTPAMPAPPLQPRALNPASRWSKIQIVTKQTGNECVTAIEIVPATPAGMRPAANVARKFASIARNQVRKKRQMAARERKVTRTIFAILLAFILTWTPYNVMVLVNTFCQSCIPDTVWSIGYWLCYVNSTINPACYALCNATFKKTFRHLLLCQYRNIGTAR
As to the kind of experiment: human FLIPR-based M4 PAM assay (calcium mobilization, CHO-K1 cells with human M4 receptor and Gαqi5). It is filed as cell-based. The settings on record: inflection point (IP) of dose response curve, acetylcholine added at 20% of maximum response, read-out: M4 FLIPPR Hu IP. On the procedure:
In a typical experiment the M4 muscarinic acetylcholine receptor modulating activity of the compounds of the present invention was determined in accordance with the following experimental method. CHO-K1 cells stably transfected with human M4 receptor and chimeric G-protein Gαqi5 (Coward P, et al., Analytical Biochemistry, 270:242-248 (1999)) are thawed from liquid N2 storage, resuspended in growth medium, plated in black, clear bottom 384 well plates, and incubated 16-20 hours at 37° C., 5% CO2. On the day of assay, growth medium is removed, the cells are washed 2 times with wash buffer, and cells are incubated in dye loading buffer at 37° C., 5% CO2 for ˜1 hour. Following dye loading the cell plates are placed in a FLIPR Tetra instrument and while monitoring dye fluorescence (excitation […]), 10 uL of test substance at increasing concentrations is added, and fluorescence values are recorded for 4 min. Next, 10 uL of acetylcholine is added (final concentration calculated so as to achieve 20% of the maximum acetycholine response), and the fluorescence reading is continued for 3.5 min. In some cases, a third addition of acetylcholine (final concentration calculated to achieve 70% of the maximal acetylcholine response) is performed. The resulting dose response curves are fit to a 4 parameter logistic equation and the final result is determined as the inflection point (IP) of the curve
CHO-K1 cells stably transfected with human M4 receptor and chimeric G-protein Gαqi5 are thawed from liquid N2 storage, resuspended in growth medium, plated in black, clear bottom 384 well plates, and incubated 16-20 hours at 37° C., 5% CO2.
On the day of assay, growth medium is removed, the cells are washed 2 times with wash buffer, and cells are incuabted in dye loading buffer at 37° C., 5% CO2 for ˜1 h. Following dye loading the cell plates are placed in a FLIPR Tetra instrument and while monitoring dye fluorescence ([…]), 10 uL of test substance at increasing concentrations is added, and fluorescence values are recorded for 4 min. Next, 10 uL of acetylcholine is added (final concentration calculated so as to achieve 20% of the maximum acetycholine response), and the fluorescence reading is continued for 3.5 min. In some cases, a third addition of acetylcholine (final concentration calculated to achieve 70% of the maximal acetylcholine response) is performed.
On the technique in general: Calcium flux is commonly read through the fluorescence of an indicator in the cells.

Turning to `CC(Cc1ncc(-c2ccc(C#N)nc2-c2ccn3ccnc3c2)o1)C(F)(F)F` (racemic) [Example 38, 6-(imidazo[1,2-a]-pyridin-7-yl)-5-(2-(3,3,3-trifluoro-2-methylpropyl)oxazol-5-yl)picolinonitrile], the EC50 stood at 212 nM.

Consider `CC1(Cc2ncc(-c3cc4c(nc3-c3cnc5c(c3)C(=O)NC5)C(F)CC4)o2)CCCC1` (single isomer, unassigned) [Example 44, 3-(7-fluoro-3-(2-((1-methylcyclopentyl)methyl)oxazol-5-yl)-6,7-dihydro-5H-cyclopenta[b]pyridin-2-yl)-6,7-dihydro-5H-pyrrolo[3,4-b]pyridin-5-one], for which the EC50 stood at 24 nM.

Consider `CC1(Cc2ncc(-c3cc4c(nc3-c3cnc5c(c3)C(=O)NC5)C(F)CC4)o2)CCCC1` (single isomer, unassigned) [Example 45, 3-(7-fluoro-3-(2-((1-methylcyclopentyl)methyl)oxazol-5-yl)-6,7-dihydro-5H-cyclopenta[b]pyridin-2-yl)-6,7-dihydro-5H-pyrrolo[3,4-b]pyridin-5-one], for which the EC50 was determined as 42 nM.

In the case of `N#Cc1ccc(-c2cnc(CC(F)C3CC3)o2)c(-c2ccc3cccnc3c2)n1` (single isomer, unassigned) [Example 70, 5-(2-(2-cyclopropyl-2-fluoroethyl)oxazol-5-yl)-6-(quinolin-7-yl)picolinonitrile (single compound)], the EC50 came out at 60 nM.

On to `N#Cc1ccc(-c2cnc(CC(F)C3CC3)o2)c(-c2ccc3cccnc3c2)n1` (single isomer, unassigned) [Example 71, 5-(2-(2-cyclopropyl-2-fluoroethyl)oxazol-5-yl)-6-(quinolin-7-yl)picolinonitrile (single compound)], for which the EC50 came to 54 nM.

On to `Cc1ccc(-c2cnc(CC3CCCC3)o2)c(-c2ccc3cccnc3c2)n1` [Example 1, 2-(cyclopentylmethyl)-5-(6-methyl-2-(quinolin-7-yl)pyridin-3-yl)oxazole], for which the EC50 came out at 7 nM.

With `COc1cc2ccc(-c3nc(C)ccc3-c3cnc(CC4CCCC4)o3)cc2nn1` [Example 2, 2-(cyclopentyl-methyl)-5-(2-(3-methoxycinnolin-7-yl)-6-methyl-pyridin-3-yl)-oxazole], the EC50 was 13 nM.

As for `CN1Cc2ccc(-c3ncccc3-c3cnc(CC4CCCC4)o3)cc2C1=O` [Example 3, 6-(3-(2-(cyclo-pentylmethyl)-oxazol-5-yl)-pyridin-2-yl)-2-methylisoindolin-1-one], the EC50 is 42 nM.

On to `CN1Cc2ccc(-c3nc4c(cc3-c3cnc(CC5(C)CCCC5)o3)CCC4)cc2C1=O` [Example 4, 2-methyl-6-(3-(2-((1-methylcyclopentyl)methyl)oxazol-5-yl)-6,7-dihydro-5H-cyclopenta[b]pyridin-2-yl)isoindolin-1-one], for which the EC50 worked out at 30 nM.

As for `CC(=O)OC1CCc2cc(-c3cnc(CC4(C)CCCC4)o3)c(-c3ccc4ccc(F)nc4c3)nc21` (centres unmarked) [Example 5, 2-(2-fluoroquinolin-7-yl)-3-(2-((1-methylcyclopentyl)-methyl)oxazol-5-yl)-6,7-dihydro-5H-cyclopenta[b]pyridin-7-yl acetate], the EC50 worked out at 170 nM.

For the compound `CN1Cc2ccc(-c3nc(C#N)ccc3-c3cnc(CC4(C)CCCC4)o3)cc2C1=O` [Example 6, 6-(2-methyl-3-oxo-isoindolin-5-yl)-5-(2-((1-methyl-cyclopentyl)methyl)-oxazol-5-yl)picolino-nitrile], the EC50 was determined as 14 nM.

`CC1(Cc2ncc(-c3ccc(C#N)nc3-c3ccc4cccnc4c3)o2)CCCC1` [Example 7, 5-(2-((1-methyl-cyclopentyl)methyl)-oxazol-5-yl)-6-(quinolin-7-yl)-picolinonitrile]: the EC50 is 34 nM.

`CN1Cc2ccc(-c3nc(F)ccc3-c3cnc(CC4(C)CCCC4)o3)cc2C1=O` [Example 8, 6-(6-fluoro-3-(2-((1-methylcyclo-pentyl)methyl)oxazol-5-yl)pyridin-2-yl)-2-methylisoindolin-1-one]: the EC50 turned out to be 44 nM.

As to `CC1(Cc2ncc(-c3ccc(C#N)nc3N3CCn4ccnc4C3)o2)CCCC1` [Example 9, 6-(5,6-dihydro-imidazo[1,2-a]-pyrazin-7(8H)-yl)-5-(2-((1-methyl-cyclopentyl)-methyl)oxazol-5-yl)picolinonitrile], the EC50 is 108 nM.

`CN1C(=O)c2cc(-c3nc4c(cc3-c3cnc(CC5(C)CCCC5)o3)CCC4)cnc2C1=O` [Example 10, 6-methyl-3-(3-(2-((1-methylcyclo-pentyl)methyl)oxazol-5-yl)-6,7-dihydro-5H-cyclopenta[b]-pyridin-2-yl)-5H-pyrrolo[3,4-b]-pyridine-5,7(6H)-dione]: the EC50 is 209 nM.

With `CC(C)(C)Cc1ncc(-c2ccc(C#N)nc2-c2ccc3cccnc3c2)o1` [Example 11, 5-(2-neopentyl-oxazol-5-yl)-6-(quinolin-7-yl)-picolinonitrile], the EC50 was 69 nM.

Consider `CN1Cc2ncc(-c3nc(C#N)ccc3-c3cnc(CC4(C)CCCC4)o3)cc2C1=O` [Example 12, 6-(6-methyl-5-oxo-6,7-dihydro-5H-pyrrolo[3,4-b]-pyridin-3-yl)-5-(2-((1-methyl-cyclopentyl)-methyl)oxazol-5-yl)picolinonitrile], for which the EC50 was found to be 34 nM.

As for `CC(C)(C)Cc1ncc(-c2ccc(C(F)F)nc2-c2ccc3cccnc3c2)o1` [Example 13, 5-(6-(difluoro-methyl)-2-(quinolin-7-yl)pyridin-3-yl)-2-neopentyloxazole], the EC50 was 128 nM.

For the compound `COc1cc2ccc(-c3nc(C(F)F)ccc3-c3cnc(CC(C)(C)C)o3)cc2nn1` [Example 14, 5-(6-(difluoro-methyl)-2-(3-methoxycinnolin-7-yl)pyridin-3-yl)-2-neopentyloxazole], the EC50 was found to be 172 nM.

For the compound `CN1Cc2ccc(-c3nc(C(F)F)ccc3-c3cnc(CC(C)(C)C)o3)cc2C1=O` [Example 15, 6-(6-(difluoro-methyl)-3-(2-neopentyloxazol-5-yl)pyridin-2-yl)-2-methylisoindolin-1-one], the EC50 was 80 nM.

Consider `CC(C)(C)Cc1ncc(-c2ccc(C#N)nc2-c2ccn3ccnc3c2)o1` [Example 16, 6-(imidazo[1,2-a]-pyridin-7-yl)-5-(2-neopentyloxazol-5-yl)picolinonitrile], for which the EC50 was 61 nM.

Regarding `CN1Cc2ncc(-c3nc4c(cc3-c3cnc(CC5(C)CCCC5)o3)CCC4)cc2C1=O` [Example 17, 6-methyl-3-(3-(2-((1-methylcyclo-pentyl)methyl)-oxazol-5-yl)-6,7-dihydro-5H-cyclo-penta[b]pyridin-2-yl)-6,7-dihydro-5H-pyrrolo[3,4-b]-pyridin-5-one], the EC50 came out at 26 nM.

In the case of `CN1Cc2ncc(-c3nc(C#N)ccc3-c3cnc(CC(C)(C)C)o3)cc2C1=O` [Example 18, 6-(6-methyl-5-oxo-6,7-dihydro-5H-pyrrolo[3,4-b]-pyridin-3-yl)-5-(2-neopentyloxazol-5-yl)picolinonitrile], the EC50 amounted to 150 nM.

Consider `CC(C)(C)Cc1ncc(-c2ccc(C(F)F)nc2-c2ccn3ccnc3c2)o1` [Example 19, 5-(6-(difluoro-methyl)-2-(imidazo-[1,2-a]pyridin-7-yl)pyridin-3-yl)-2-neopentyloxazole], for which the EC50 was found to be 73 nM.

For `CN1Cc2ncc(-c3nc(C(F)F)ccc3-c3cnc(CC(C)(C)C)o3)cc2C1=O` [Example 20, 3-(6-(difluoro-methyl)-3-(2-neopentyloxazol-5-yl)pyridin-2-yl)-6-methyl-6,7-dihydro-5H-pyrrolo[3,4-b]-pyridin-5-one], the EC50 worked out at 163 nM.

As for `N#Cc1ccc(-c2cnc(CC3(C(F)(F)F)CC3)o2)c(-c2ccn3ccnc3c2)n1` [Example 21, 6-(imidazo[1,2-a]-pyridin-7-yl)-5-(2-((1-(trifluoromethyl)-cyclopropyl)methyl)-oxazol-5-yl)picolino-nitrile], the EC50 was 82 nM.
